Results on nine compounds are retold here after patent US20200147243A1, “LIGAND COMPOUND OF ALPHA7 NICOTINIC ACETYLCHOLINE RECEPTOR AND APPLICATION THEREOF” (BEIJING NORMAL UNIVERSITY, priority 2017, published 2020).

Where two headings read alike, the source gives them in different places.

Series [1] addresses T1, hERG potassium channel (Homo sapiens, UniProt Q12809). The series is described as follows: in vitro.
The next series deals with α7 nAChRs (Rattus norvegicus, UniProt Q05941). The series is described as follows: In vitro competitive binding experiment with [125I] α-bgt as radioactive standard. Further details: species or system SD rats. The conditions noted are these: 0.4 nM [125I] α-bgt, Cheng-Prusoff, mean of three measurements ± SD; read-out: Ki (nM), in vitro binding affinity to α7 nAChRs.
In series [2] the target is T1, hERG potassium channel. Nature of the series: In vitro hERG potassium channel inhibition experiment (conventional patch clamp, HEK293 cell line stably expressing hERG). (In general: The hERG channel carries a current that helps repolarise heart muscle cells.)
Series [3] concerns the target T1, hERG potassium channel.
The subject of the next series is Kunming mice. Nature of the series: Measurement of half lethal dosage LD50 (tail vein injection). In kind it is in vivo. The conditions noted are these: for Death Rate (%): tail vein. The text has this:
(§1) There are many methods for calculating LD50, among which the weighted probit method created by Bliss and then developed by later researchers was the most accurate and rigorous, and was the standard LD50 calculation method recognized by researchers. This calculation method will be used herein to solve the LD50 value of the compound to be measured to the mice.

Assay in series [4]: as above
The settings on record: both sexes, Kunming, mouse, in vivo, intravenous, mice, tail vein injection. In kind it is in vivo, Kunming mice.
From the text: as §1

The conditions of series [5]: 5 min after administration; cited from earlier work.
The conditions of series [6]: 5 min after the administration, cited from earlier work.
Setting [7] is: IC50 (μM), hERG potassium current, Table 7 and text, n=3.
Where [8] appears, read: hERG Potassium Channel IC50 (nM), Table 8.

T1 sequence (Q12809 whole entry): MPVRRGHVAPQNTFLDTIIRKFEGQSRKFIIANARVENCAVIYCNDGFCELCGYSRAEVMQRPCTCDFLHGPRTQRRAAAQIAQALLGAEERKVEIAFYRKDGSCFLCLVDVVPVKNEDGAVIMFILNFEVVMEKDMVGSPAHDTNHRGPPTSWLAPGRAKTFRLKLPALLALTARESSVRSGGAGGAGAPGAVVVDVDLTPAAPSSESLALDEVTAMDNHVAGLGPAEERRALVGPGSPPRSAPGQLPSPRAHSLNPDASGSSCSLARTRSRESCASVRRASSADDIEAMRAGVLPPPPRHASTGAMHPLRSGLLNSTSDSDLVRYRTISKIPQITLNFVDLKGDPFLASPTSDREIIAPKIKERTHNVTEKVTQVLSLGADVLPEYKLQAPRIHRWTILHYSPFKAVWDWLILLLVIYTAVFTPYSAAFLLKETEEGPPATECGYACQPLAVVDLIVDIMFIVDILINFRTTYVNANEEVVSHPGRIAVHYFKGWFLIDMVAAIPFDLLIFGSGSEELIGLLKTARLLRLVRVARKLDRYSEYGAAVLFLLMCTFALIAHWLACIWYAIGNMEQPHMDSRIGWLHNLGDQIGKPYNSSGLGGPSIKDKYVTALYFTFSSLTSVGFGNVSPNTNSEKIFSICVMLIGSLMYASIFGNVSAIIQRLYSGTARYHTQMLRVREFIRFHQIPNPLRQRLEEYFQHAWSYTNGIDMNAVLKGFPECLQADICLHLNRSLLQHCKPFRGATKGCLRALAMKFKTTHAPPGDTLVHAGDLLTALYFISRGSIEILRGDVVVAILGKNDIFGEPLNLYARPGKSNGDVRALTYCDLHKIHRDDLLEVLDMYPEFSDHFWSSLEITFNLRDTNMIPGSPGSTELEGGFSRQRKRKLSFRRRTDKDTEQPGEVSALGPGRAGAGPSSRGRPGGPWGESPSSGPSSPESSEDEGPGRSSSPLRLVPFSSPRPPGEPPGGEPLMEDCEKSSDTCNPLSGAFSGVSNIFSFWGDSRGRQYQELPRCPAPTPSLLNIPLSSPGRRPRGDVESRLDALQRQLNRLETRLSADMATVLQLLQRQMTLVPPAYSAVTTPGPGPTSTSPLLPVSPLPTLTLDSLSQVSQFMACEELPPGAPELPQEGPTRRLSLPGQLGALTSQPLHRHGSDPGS
Chain of α7 nAChRs (Q05941 23-502): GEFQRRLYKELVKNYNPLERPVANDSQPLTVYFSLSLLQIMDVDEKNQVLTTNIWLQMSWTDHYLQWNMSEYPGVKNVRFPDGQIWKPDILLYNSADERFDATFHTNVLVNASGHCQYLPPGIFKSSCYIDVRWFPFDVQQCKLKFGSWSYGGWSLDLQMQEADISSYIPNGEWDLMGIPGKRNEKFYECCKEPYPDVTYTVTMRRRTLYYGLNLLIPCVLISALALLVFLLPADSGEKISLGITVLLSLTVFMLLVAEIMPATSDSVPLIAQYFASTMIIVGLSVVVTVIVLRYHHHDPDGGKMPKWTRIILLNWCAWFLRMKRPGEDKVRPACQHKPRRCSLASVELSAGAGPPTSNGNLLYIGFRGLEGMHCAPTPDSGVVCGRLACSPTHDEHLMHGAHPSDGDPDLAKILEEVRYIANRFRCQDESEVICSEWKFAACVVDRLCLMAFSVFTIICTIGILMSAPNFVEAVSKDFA

The term inhibition denotes the percentage by which the read-out fell short of the control. Low readings indicate little suppression, high ones strong suppression. On hERG potassium channel [1], `COc1cc(N)c(Cl)cc1C(=O)NC1CCN(CCCOc2ccc(F)cc2)CC1OC` (stereo not shown) [Cisapride, reference compound] returned an inhibition at 5 min, 0.001 µM of 8 ± 2%; an inhibition at 5 min, 0.01 µM of 44 ± 1%; an inhibition at 5 min, 0.1 µM of 84 ± 1%.

One may read the Ki as a measure of affinity in units of concentration, obtained from inhibition or displacement. In the case of `Fc1ccc(-c2ccc3oc(N4CCN5CCC4CC5)nc3n2)cn1` [Compound I-10], the Ki at α7 nAChRs is 378 ± 119 nM.

As usually defined, the IC50 is the point on the concentration scale where inhibition reaches its midpoint. Lower therefore signals higher potency. With `Nc1ccc2c(c1)C(=O)c1cc(N3CCN4CCC3CC4)ccc1-2` [II-5], on hERG potassium channel [1], the inhibition at 5 min, 0.4 µM came to 19 ± 1%; the inhibition at 5 min, 2 µM was 42 ± 1%; the inhibition at 5 min, 10 µM was determined as 79 ± 2%; the inhibition at 5 min, 50 µM turned out to be 98%. The IC50 on hERG potassium channel [2] (setting [7]) was 2.5 ± 0.15 µM. This compound showed an IC50 at hERG potassium channel [2] (setting [8]) of 2.5 ± 0.15 µM.

At hERG potassium channel [1], `O=C1c2cc(F)ccc2-c2ccc(N3CCN4CCC3CC4)cc21` [II-6] registered an inhibition at 5 min, 0.4 µM of 42 ± 2%; an inhibition at 5 min, 2 µM of 80 ± 1%; an inhibition at 5 min, 10 µM of 96 ± 1%; an inhibition at 5 min, 50 µM of 100%. The “IC50(hERG)/IC50(α7 nAChR)” value against hERG potassium channel [3] was determined as 22. The compound further registered a concentration for half-maximal inhibition (IC50) against hERG potassium channel [2] (setting [7]) of 0.46 ± 0.055 µM. The half-inhibitory concentration (IC50) against hERG potassium channel [2] (setting [8]) came to 0.46 ± 0.055 µM.

`Nc1cccc2c1C(=O)c1cc(N3CCN4CCC3CC4)ccc1-2` [II-14]: on hERG potassium channel [1], the inhibition at 5 min, 0.4 µM was 6 ± 1%; the inhibition at 5 min, 2 µM is 20 ± 2%; the inhibition at 5 min, 10 µM was found to be 25 ± 3%; the inhibition at 5 min, 50 µM is 53 ± 4%. This compound had a half-maximal inhibitory concentration (IC50) on hERG potassium channel [2] (setting [7]) of 49.7 ± 15.9 µM. For the same compound, at hERG potassium channel [2] (setting [8]), it took 49.7 ± 15.9 µM to reach half-maximal inhibition (IC50).

By LD50 is commonly meant the dose expected to kill half of the subjects tested. `O=C1c2cc(N3CCN4CCC3CC4)ccc2-c2cccc(F)c21` [II-15]: on hERG potassium channel [1], the inhibition at 5 min, 0.4 µM was found to be 45 ± 1%. The inhibition at 5 min, 2 µM at hERG potassium channel [1] worked out at 82 ± 1%. The same compound registered an inhibition at 5 min, 10 µM against hERG potassium channel [1] of 97 ± 1%. Further, at hERG potassium channel [1], the inhibition at 5 min, 50 µM came out at 98 ± 1%. Besides, the “Observation Record” value in the series on Kunming mice (43.74 mg/kg) was “Symptoms of convulsion, and trembling”; in the series with Kunming mice (54 mg/kg) it was “Died after convulsion of 20 min; survivors”; with Kunming mice (60 mg/kg) it was “Died after convulsion of 6-10 min; survivors”; with Kunming mice (64.8 mg/kg) it was “Died after convulsion of about 10 s: survivors”. Besides, the “Number of Death” value in the series with Kunming mice (43.74 mg/kg, 10 mice) amounted to 1; with Kunming mice (48.6 mg/kg, 9 mice), 2; in the series on Kunming mice (54 mg/kg, 10 mice), 6; in the series on Kunming mice (60 mg/kg, 10 mice), 7; with Kunming mice (64.8 mg/kg, 10 mice) it was 9. Further, the “Death Rate (%)” value in the series on Kunming mice (43.74 mg/kg, 14 days observation) is listed as 10%; in the series on Kunming mice (48.6 mg/kg, 14 days observation), 22%; in the series with Kunming mice (54 mg/kg, 14 days observation), 60%; with Kunming mice (60 mg/kg, 14 days observation) it was 70%; in the series with Kunming mice (64.8 mg/kg, 14 days observation) it was 90%. Also, the “weights of surviving mice in the observation period” value with Kunming mice (14 days observation) is recorded as “increased normally”. Moreover, the “inappetence after the administration, then recovered to normal” value in the series on Kunming mice (all administrated mice) was at most 1 h. Moreover, in the series with Kunming mice (all dose groups), the “tissues and organs of dissected dead mice” value is “no abnormality was found”. Besides, the 50% lethal dose (LD50) at 14 days in series [4] (weighted probit method, read-out: half lethal dosage LD50) was 53.7 mg/kg; in series [4] (read-out: 95% confidence limit of LD50) it was 50.4 to 57.2 mg/kg. Also, the “IC50(hERG)/IC50(α7 nAChR)” value on hERG potassium channel [3] was 74. Besides, the half-maximal inhibitory concentration (IC50) against hERG potassium channel [2] (setting [7]) and against hERG potassium channel [2] (setting [8]) was 0.46 ± 0.011 µM each time.

For `CN1CC2CN(c3ccc(-c4ccc5c(ccn5CCF)c4)nc3)CC2C1` (stereo not shown) [III-19], the inhibition constant Ki on α7 nAChRs was determined as 456 ± 152 nM.

Regarding `CN1CC2CN(c3ccc(-c4ccc(OCCF)cc4)nn3)CC2C1` (stereo not shown) [III-24], at α7 nAChRs, the Ki was found to be 445 ± 31.5 nM.

Take `O=S1(=O)c2cc(N3CCN4CCC3CC4)ccc2-c2cccc([18F])c21` [[^18F] ASEM]: the “highest brain uptake value (reported)” value in series [5] is 7.5 % ID/g. Further, the “uptake value in corpus striatum (reported)” value in series [6] (corpus striatum) is listed as 6.0 % ID/g. Also, the “uptake value in cortex (reported)” value in series [6] (cortex) is given as 7.2 % ID/g. Further, in series [6] (hippocampus), the “uptake value in hippocampus (reported)” value is 5.0 % ID/g.
